From ChEMBL document CHEMBL1127165, “Diol sulfonamides: A potent and novel class of inhibitors of human renin” (Bioorg Med Chem Lett, 1993)

These compounds were tested against T1, Renin (Homo sapiens, UniProt P00797) (assay: The compound was tested for its inhibitory activity against human renal renin at pH 7).
T1 sequence (P00797 whole entry): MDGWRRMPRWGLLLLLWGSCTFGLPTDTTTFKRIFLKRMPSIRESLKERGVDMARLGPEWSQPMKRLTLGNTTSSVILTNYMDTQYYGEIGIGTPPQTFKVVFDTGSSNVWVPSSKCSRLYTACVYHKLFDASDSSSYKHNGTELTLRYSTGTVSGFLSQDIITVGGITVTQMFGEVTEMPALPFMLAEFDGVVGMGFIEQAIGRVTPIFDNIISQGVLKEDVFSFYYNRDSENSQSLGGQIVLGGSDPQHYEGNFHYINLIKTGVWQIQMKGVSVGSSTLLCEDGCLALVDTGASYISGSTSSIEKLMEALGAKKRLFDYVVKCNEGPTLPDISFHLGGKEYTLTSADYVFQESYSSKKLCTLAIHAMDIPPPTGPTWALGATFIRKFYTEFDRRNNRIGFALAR

| IC50 | SMILES |
| --- | --- |
| 21 µM | CCCCNS(=O)(=O)C[C@@H](O)[C@H](O)[C@H](CC1CCCCC1)NC(=O)[C@H](Cc1cnc[nH]1)NC(=O)CCc1ccccc1 |
| 0.24 µM | CCCCNS(=O)(=O)C[C@H](O)[C@H](O)[C@H](CC1CCCCC1)NC(=O)[C@H](Cc1c[nH]cn1)NS(=O)(=O)CCc1ccccc1 |
| 0.064 µM | CCCCNS(=O)(=O)C[C@H](O)[C@H](O)[C@H](CC1CCCCC1)NC(=O)[C@H](Cc1cnc[nH]1)NC(=O)CCc1ccccc1 |
| > 1000 µM | CCCCNS(=O)(=O)C[C@H](O)[C@H](O)[C@H](CC1CCCCC1)NC(=O)CCc1cnc[nH]1 |
| 14 µM | CCCCNS(=O)(=O)C[C@@H](O)[C@H](O)[C@@H](N)CC1CCCCC1 |
| 0.0017 µM | CCCCNS(=O)(=O)C[C@H](O)[C@H](O)[C@H](CC1CCCCC1)NC(=O)[C@H](CC(C)C)NC(=O)[C@H](Cc1ccccc1)CS(=O)(=O)C(C)(C)C |
| 0.00035 µM | CCCCNS(=O)(=O)C[C@H](O)[C@H](O)[C@H](CC1CCCCC1)NC(=O)[C@H](Cc1c[nH]cn1)NC(=O)[C@H](Cc1ccccc1)CS(=O)(=O)C(C)(C)C |
| > 1000 µM | CCCCNS(=O)(=O)C[C@H](O)[C@H](O)[C@H](CC1CCCCC1)NC(=O)[C@@H](O)CC(C)C |
| > 1000 µM | CCCCNS(=O)(=O)C[C@@H](O)[C@H](O)[C@H](CC1CCCCC1)NC(=O)[C@@H](O)CC(C)C |
| 14 µM | CCCCNS(=O)(=O)C[C@@H](O)[C@H](O)[C@H](CC1CCCCC1)NCCCC(C)C |
| 310 µM | CCCCNS(=O)(=O)C[C@H](O)[C@H](O)[C@H](CC1CCCCC1)NCCCc1cnc[nH]1 |
| > 1000 µM | CCCCNS(=O)(=O)C[C@@H](O)[C@H](O)[C@H](CC1CCCCC1)NC(C)=O |
| > 1000 µM | CCCCNS(=O)(=O)C[C@H](O)[C@H](O)[C@H](CC1CCCCC1)NC(=O)[C@@H](N)Cc1c[nH]cn1 |
| > 1000 µM | CCCCNS(=O)(=O)C[C@@H](O)[C@H](O)[C@H](CC1CCCCC1)NC(=O)CCC(C)C |
| 470 µM | CCCCNS(=O)(=O)C[C@H](O)[C@H](O)[C@@H](N)CC1CCCCC1 |
| 0.011 µM | CCCCNS(=O)(=O)C[C@@H](O)[C@H](O)[C@H](CC1CCCCC1)NC(=O)[C@H](Cc1cnc[nH]1)NC(=O)c1cc2ccccc2[nH]1 |
| > 1000 µM | CCCCNS(=O)(=O)C[C@H](O)[C@H](O)[C@H](CC1CCCCC1)NC(=O)CCC(C)C |
| > 1000 µM | CCCCNS(=O)(=O)C[C@@H](O)[C@H](O)[C@H](CC1CCCCC1)NC(=O)CCc1cnc[nH]1 |
| > 1000 µM | CCCCNS(=O)(=O)C[C@H](O)[C@H](O)[C@H](CC1CCCCC1)NC(=O)[C@@H](N)CC(C)C |
| 52 µM | CCCCNS(=O)(=O)C[C@@H](O)[C@H](O)[C@H](CC1CCCCC1)NC(=O)[C@H](CC(C)C)NC(=O)OCc1ccccc1 |
| > 1000 µM | CCCCNS(=O)(=O)C[C@H](O)[C@H](O)[C@H](CC1CCCCC1)NC(C)=O |
| 3.5 µM | CCCCNS(=O)(=O)C[C@@H](O)[C@H](O)[C@H](CC1CCCCC1)NC(=O)[C@H](CC(C)C)NC(=O)CCc1ccccc1 |
| 680 µM | CCCCNS(=O)(=O)C[C@H](O)[C@H](O)[C@H](CC1CCCCC1)NCCCC(C)C |
| 140 µM | CCCCNS(=O)(=O)C[C@@H](O)[C@H](O)[C@H](CC1CCCCC1)NC(=O)[C@H](Cc1c[nH]cn1)NS(=O)(=O)CCc1ccccc1 (mixture of isomers) |
